These results are taken from patent US6509344B1, “Indenoisoquinolines as antineoplastic agents” (The United States of America as represented by the …, priority 1998, dated 2003).

Data set [1] addresses T1, topoisomerase I cleavage complexes (Homo sapiens, UniProt P11387).
T1 sequence (P11387 1-765): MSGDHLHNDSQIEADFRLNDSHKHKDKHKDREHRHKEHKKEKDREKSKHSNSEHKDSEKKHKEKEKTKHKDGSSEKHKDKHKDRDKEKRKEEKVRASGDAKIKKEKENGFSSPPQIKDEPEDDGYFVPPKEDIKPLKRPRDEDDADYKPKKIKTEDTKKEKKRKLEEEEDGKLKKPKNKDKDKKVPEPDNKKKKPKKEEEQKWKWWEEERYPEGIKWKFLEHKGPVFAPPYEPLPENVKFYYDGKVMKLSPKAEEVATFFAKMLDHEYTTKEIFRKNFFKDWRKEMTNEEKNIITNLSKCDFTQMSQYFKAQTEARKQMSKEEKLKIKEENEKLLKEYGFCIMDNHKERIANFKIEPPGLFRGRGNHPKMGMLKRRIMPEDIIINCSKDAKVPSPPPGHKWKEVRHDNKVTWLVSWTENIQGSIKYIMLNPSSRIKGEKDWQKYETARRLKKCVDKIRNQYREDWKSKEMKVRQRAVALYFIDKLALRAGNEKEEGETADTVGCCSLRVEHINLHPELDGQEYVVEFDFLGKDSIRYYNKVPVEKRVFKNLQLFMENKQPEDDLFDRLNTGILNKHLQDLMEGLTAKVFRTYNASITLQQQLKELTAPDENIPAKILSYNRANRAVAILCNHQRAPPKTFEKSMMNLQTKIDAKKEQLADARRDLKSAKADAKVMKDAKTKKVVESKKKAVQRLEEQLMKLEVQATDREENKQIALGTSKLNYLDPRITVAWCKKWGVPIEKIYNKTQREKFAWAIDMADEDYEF
As to the kind of experiment: Salt reversal of topoisomerase I cleavage complexes. It is filed as biochemical. As to conditions: increasing salt concentration.

A further data set addresses T2, topoisomerase I (Homo sapiens, UniProt P11387).
T2 sequence (P11387 1-765): T1 sequence (P11387 1-765)
Kind of data set: Topoisomerase I-mediated DNA cleavage assay (3'-end-labeled 161 bp pBluescript SK(-) fragment). It is filed as biochemical. As to conditions: for Top 1 Cleavage: relative to the activity of 1 μM camptothecin. Put shortly: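 A 3′-end ³²P-labeled 161 bp Pvu II/Hind III pBluescript SK(−) fragment was incubated with topoisomerase I and drug for 15 min at 30° C, then stopped with 0.5% SDS. Cleavage products were resolved on a denaturing 16% polyacrylamide/7 M urea gel at 51° C and read by phosphorimaging.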

A further data set deals with DU-145. As to the kind of experiment: NCI human cancer cell line screen (COMPARE screening), Prostate DU-145. As to conditions: DU-145, concentration causing 50% growth inhibition, read-out: Cytotoxicity (G150 in μM) Prostate DU-145. It is filed as cell-based. Put shortly: (§1)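 Human cancer cell panel (NCI, ~55 lines, diverse origins) exposed to compound in vitro. Antiproliferative cytotoxicity then recorded line by line.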

The test system of the next data set is HOP-62. As to the kind of experiment: NCI human cancer cell line screen (COMPARE screening), Lung HOP-62. It is filed as cell-based. As to conditions: HOP-62, concentration causing 50% growth inhibition, read-out: Cytotoxicity (G150 in μM) Lung HOP-62. Summed up: as §1
Another data set has as its system SN12C. As to the kind of experiment: NCI human cancer cell line screen (COMPARE screening), Renal SN12C. As to conditions: SN12C, concentration causing 50% growth inhibition, read-out: Cytotoxicity (G150 in μM) Renal SN12C. It is filed as cell-based. Summed up:
as §1

The test system of another data set is human topoisomerase II. As to the kind of experiment: Topoisomerase II-mediated DNA cleavage assay (5'-end-labeled human c-myc DNA). It is filed as biochemical.
In a further data set the test system is SF-539. Kind of data set: NCI human cancer cell line screen (COMPARE screening), CNS SF-539. It is filed as cell-based. As to conditions: SF-539; concentration causing 50% growth inhibition; read-out: Cytotoxicity (G150 in μM) CNS SF-539. Summed up: as §1
Another data set deals with supercoiled SV40 DNA. As to the kind of experiment: SV40 DNA unwinding assay. It is filed as biochemical. Conditions: for DNA unwinding: supercoiled DNA in the presence of topoisomerase I. The protocol:
With some of the compounds (e.g. 27), the activity seemed to increase initially as the concentration was increased, but then it declined at higher concentrations. […] The unwinding assay using supercoiled DNA in the presence of topoisomerase I is a simple procedure to detect DNA intercalation.
After electrophoresis, DNA bands were stained in 10 μg/mL of ethidium bromide and visualized by transillumination with UV light (300 nm).

The next data set relates to UACC-62. Kind of data set: NCI human cancer cell line screen (COMPARE screening), Melanoma UACC-62. It is filed as cell-based. As to conditions: UACC-62, concentration causing 50% growth inhibition, read-out: Cytotoxicity (G150 in μM) Melanoma UACC-62. Summed up: as §1
In another data set the test system is MDA-MB-435. Kind of data set: NCI human cancer cell line screen (COMPARE screening), Breast MDA-MB-435. It is filed as cell-based. As to conditions: MDA-MB-435, concentration causing 50% growth inhibition, read-out: Cytotoxicity (G150 in μM) Breast MDA-MB-435. Put shortly:
as §1

Data set [2] deals with approximately 55 different cancer cell lines of diverse tumor origins. Kind of data set: NCI screen mean graph midpoint over all cell lines tested. It is filed as cell-based, human. As to conditions: for IC50: average GI50 for all cell lines tested (approximately 55), values outside test range taken as 10^-8 or 10^-4 molar, read-out: MGM (mean graph midpoint).
Another data set has as its system HCT-116. As to the kind of experiment: NCI human cancer cell line screen (COMPARE screening), Colon HCT-116. It is filed as cell-based. As to conditions: HCT-116, concentration causing 50% growth inhibition, read-out: Cytotoxicity (G150 in μM) Colon HCT-116. Summed up:
as §1

The next data set has as its system OVCAR-3. Kind of data set: NCI human cancer cell line screen (COMPARE screening), Ovarian OVCAR-3. It is filed as cell-based. Conditions: Homo sapiens; OVCAR-3; concentration causing 50% growth inhibition; read-out: Cytotoxicity (G150 in μM) Ovarian OVCAR-3. Put shortly:
as §1

Entries after “also recorded” stand apart in the source; their conditions may differ. Like-named read-outs stand apart in the source and are kept apart here.

In the case of `COc1cc2c3c(n(C)c(=O)c2cc1OC)-c1cc2c(cc1C3=O)OCO2` [Compound 1, reference compound], the “reversal of induced cleavage sites by salt treatment” value (“reversal of induced cleavage sites” below) in data set [1] was “reversed by salt treatment”. Further, the “activity in the topoisomerase I cleavage assay (in words)” value (from here on “activity”) on topoisomerase I was “induce DNA cleavage in the presence of topoisomerase I; also recorded: good activity”. In addition, the “Top 1 Cleavage” value at topoisomerase I is reported as “++ (those compounds having greater than 50% of the activity of 1 μM camptothecin)”. For the same compound, the IC50 with DU-145 came out at 37 µM; in the data set with HOP-62, 1.3 µM; in the data set with SN12C, 68 µM; in the data set on SF-539 it was 41 µM; in the data set with UACC-62, 4.2 µM; in the data set with MDA-MB-435, 96 µM. The IC50 in data set [2] came out at 20 µM; in the data set with HCT-116 it was 35 µM. In addition, the “induction of topoisomerase II cleavage complexes” value (shortened to “induction”) with human topoisomerase II is on record as “no effect”. For the same compound, in the data set with supercoiled SV40 DNA, the DNA unwinding result is listed as “did not produce detectable DNA unwinding; also recorded: does not appear to unwind DNA”.
As a reminder, the melting point is the temperature of the solid-liquid transition. For the compound `COc1cc2c3c(n(CCCCO)c(=O)c2cc1OC)-c1cc2c(cc1C3=O)OCO2` [Compound 19a, 5,6-Dihydro-5,11-diketo-6-(4-hydroxybut-1-yl)-2,3-dimethoxy-8,9-methylenedioxy-(11H)indeno[1,2-c]isoquinoline], the melting point was 304 to 308 °C. Further, in [1], the “reversal of induced cleavage sites” value is on record as “reversed by salt treatment”. Moreover, at topoisomerase I, the “activity” value is on record as “rival the topoisomerase activity of 1”; the “Top 1 Cleavage” value was “+ (those compounds having between 20% and 50% of the activity of 1 μM camptothecin)”. Moreover, the IC50 with OVCAR-3 was determined as 3.7 µM. Also, in the data set with DU-145 (Homo sapiens), the IC50 turned out to be 0.36 µM. Also, in the data set on HOP-62 (Homo sapiens), the IC50 was found to be 0.7 µM. Moreover, the “induction” value in the data set with human topoisomerase II is given as “no effect”. For the same compound, the DNA unwinding result in the data set with supercoiled SV40 DNA is listed as “does not appear to unwind DNA”. Besides, the IC50 with UACC-62 (Homo sapiens) amounted to 0.99 µM. Besides, the IC50 in the data set on MDA-MB-435 (Homo sapiens) is 10 µM. Moreover, the IC50 in data set [2] (Homo sapiens) worked out at 3.2 µM. Also, the “cytotoxicity (MGM) relative to lead compound 1” value in data set [2] (comparison in words) was “lower MGM than the lead compound 1”. In the data set with HCT-116 (Homo sapiens), the IC50 came out at 1.4 µM.
Turning to `COC1=CC2=C(CN1OC)C1=C(c3cc4c(cc3C1=O)OCO4)C(CCCC(C)O)C2=O` (centres unmarked) [Compound 19b, 5,6-Dihydro-6-(4-hydroxypent-1-yl)-5,11-diketo-2,3-dimethoxy-8,9-methylenedioxy-11H-indenoisoquinoline], the melting point lay within 288 to 290 °C.
In the case of `O=C(O)CCCn1c2c(c3ccccc3c1=O)C(=O)c1ccccc1-2` [Compound 26, 6-(3-Carboxy-1-propyl)-5,6-dihydro-5,11-diketo-11H-indeno[1,2-c]isoquinoline], the “reversal of induced cleavage sites” value in data set [1] was “reversed by salt treatment”. At topoisomerase I, the “activity” value is given as “most potent; also recorded: rival the topoisomerase activity of 1”. In addition, on topoisomerase I, the “Top 1 Cleavage” value is recorded as “++ (those compounds having greater than 50% of the activity of 1 μM camptothecin)”. Also, the IC50 is over 100 µM with OVCAR-3; 48 µM in the data set with DU-145 (Homo sapiens); 87 µM with HOP-62 (Homo sapiens); 27 µM in the data set with SN12C (Homo sapiens); 73 µM in the data set with UACC-62 (Homo sapiens); over 100 µM with MDA-MB-435 (Homo sapiens). In addition, the figures for the IC50 (in data set [2] (Homo sapiens); in the data set with HCT-116 (Homo sapiens)) were 48 µM and 40 µM, respectively. Also, in the data set on human topoisomerase II, the “induction” value is “induced topoisomerase II cleavage complexes”. The “DNA unwinding at higher concentrations” value with supercoiled SV40 DNA (at higher concentrations) is reported as “does unwind DNA”.
